Measurements taken from patent US20260085340A1, “METHOD FOR SINGLE CELL ANTIMICROBIAL SUSCEPTIBILITY TESTING IN A SUB-DOUBLING TIME” (The Penn State Research Foundation, priority 2022, published 2026).
≈ marks a conversion by molar mass, not a printed value. Entries after “also recorded” stand apart in the source; their conditions may differ. Where two headings read alike, the source gives them in different places.

How the values were obtained:
[1] = tested on: clinical samples of KP (VA_1 and VA_2); assay: Experimental MIC of clinical samples of KP from patients with urinary tract infections; type: cell-based, Klebsiella pneumoniae
Protocol: (§1) In addition to validation against unseen strains, the model was tested against imaging data from two clinical samples of KP obtained from patients visiting the VA (Palo Alto) with urinary tract infections (FIG. 9D-E). The experimental MICs for these clinical samples (VA_1 and VA_2) was 0.5 μg/mL, i.e., susceptible. […] When the incubation time was increased to 50 minutes, both strains were predicted to have a mode MIC of 1 μg/mL which accurately classifies both clinical isolates as susceptible with an MIC within one-two fold dilution from the experimental MIC resulting.

[2] = tested on: clinical samples of KP (VA_1 and VA_2); assay: MorphoAST MIC prediction with Random Forest regressor (concentration differential) from single cell imaging; type: cell-based, Klebsiella pneumoniae; conditions: for MIC: Klebsiella pneumoniae
Protocol: (§2) We developed a non-limiting example machine learning workflow for rapid AST in a sub-doubling time of the bacteria. The MorphoAST workflow started with imaging of individual bacteria under various antimicrobial concentrations (FIG. 1A). Cells were grown to log phase and treated with varying concentrations of meropenem. Cells without any antimicrobials were imaged in the same manner as controls for the experiment. Live bacteria were mounted on an agarose pad to minimize cell movement due to cell motility and Brownian motion. Time-lapse images were taken every 5 minutes. Images were aligned to match the location of individual cells at each frame and then subject to MicrobeJ analysis for extracting morphological features. A total of 21 parameters (Table 2) describing the cellular dimension and orientation were generated. The data were analyzed either fitting with an exponential function to extract the feature changing rates (FIG. 1B) or normalized against the untreated control to extract the feature differentials (FIG. 1C). The data were applied to train and validate machine learning classifiers to predict the antimicrobial response (FIG. 1D) and regressors to predict the MIC of the bacterial strain against the antimicrobial (FIG. 1E).
We further evaluated the use of the concentration differential data for MIC prediction. A Random Forest regressor was trained from a total of 39,135 cells across the concentrations. […] The Random Forest regressor predicted the MIC in the 5-fold cross-validated training dataset with an RMSE of 0.8, MAE of 0.2, and an R^2 of 0.93. The performance of the model was assessed against 5 unseen KP strains, which comprised 6,067 cells. The experimental MIC and predicted MIC of the 5 unseen strains based on the Random Forest regressor are compared in FIG. 9B. […] The predicted and experimentally reported MIC labels were also compared. Based on the predicted MIC for each strain, the model correctly predicted 100% (2/2) of the susceptible and intermediate (1/1) bacteria in as few as 30 minutes. The performance of the model increased with the antimicrobial exposure time and achieved 100% CA with 0% ME and 0% VME in 50 minutes. We then tested the model performance in predicting the MIC for individual cells within each population of the unseen strains tested (FIG. 9C). While there is heterogeneity in calls for individual cells from a single population, ˜79.9% of cells from 3/5 strains tested (KP 003, KP_139, and KP_U3) had predicted MICs within one-two fold dilution from the experimental MIC after 20 minutes of antimicrobial exposure. After 50 minutes of exposure, ˜85.1% of all cells from 5/5 tested strains had predicted MICs within one-two fold dilution from experimental MIC.
as §1

[3] = tested on: Klebsiella pneumoniae isolates; conditions: cited from earlier work
Klebsiella pneumoniae = assay: Time-lapse single cell imaging of K. pneumoniae treated with meropenem (cell division, morphology); type: cell-based; conditions: for bulging or protrusion around the center of the cell: 5 μg/mL meropenem, early time points
Protocol: Klebsiella pneumoniae isolates (listed in Table 1 below) from the CDC & FDA Antimicrobial Resistance (AR) bank and American Type Culture Collective (ATCC) were grown in Mueller Hinton Broth (MHB) at 37° C. overnight. The next day, cells were sub-cultured in fresh MHB media for three hours (growth phase) to a density equivalent to OD600=0.5. Bacteria cells (10 μL) were treated with 10 μL meropenem at varying final concentrations of 0, 0.05, 0.5, 5, and 50 μg/mL to ascertain the physiological responses of cells. A subset of these isolates was treated with finer range of antimicrobial concentrations (0.02, 0.04, 0.016, 0.032, 0.064, 0.125, 0.5, 1, 2 μg/mL) to train the algorithm for quantitative prediction of MIC. The MICs of the isolates were obtained from the CDC and independently confirmed using the broth microdilution method according to the CDC guideline.
Bacteria cells and meropenem in liquid media are briefly vortexed prior to mounting on 1% (v/v) UltraPure agarose pad (10×20 mm, Invitrogen) on a microslide covered with a glass coverslip (#1.5, 22×30 mm). Bacteria imaging was performed using a Nikon Ti2-E inverted microscope equipped with a DS-Qi2 CMOS camera and an Okolab stage-top temperature control chamber (37° C., 5% CO2). Images were acquired using a Nikon CFI Plan Apochromat 1 DM 100× oil objective lens and an external Phase Contrast (Ph3) module. Each isolate was observed over a period of 75 minutes (15-90 minutes after mixing with the antimicrobial).
Time-series images were stacked and corrected for shifts in the time series using the Template Matching and Slice Alignment ImageJ plugin. Each individual stack was then analyzed using the MicrobeJ plugin for ImageJ. The plugin, designed for the detection and analysis of bacterial cells, uses computer vision algorithms to automatically identify a cell and determine a suite of morphological features, such as its area, length, circularity, and perimeter (see Table 2 below). The tracking data were summarized as a table and exported as a comma-separated values (.csv) file for further analysis.
as §2

- MIC ([1]; Klebsiella pneumoniae, clinical sample VA_1): 0.5 µg/mL
- susceptibility category from experimental MIC ([1]; clinical sample VA_1): susceptible
- experimental MIC ([1]; clinical sample VA_2): 0.5 µg/mL
- susceptibility category from experimental MIC ([1]; clinical sample VA_2): susceptible
- MIC ([2]; 20 min, clinical sample VA_1, within 20 minutes of meropenem treatment, read-out: predicted MIC): 8 µg/mL (≈ 20.9 µM)
- MIC ([2]; 20 min, clinical sample VA_2, within 20 minutes of meropenem treatment, read-out: predicted MIC): 7 µg/mL (≈ 18.3 µM)
- MIC ([2]; 50 min, clinical sample VA_1, 50 minutes incubation, read-out: predicted mode MIC): 1 µg/mL (≈ 2.61 µM)
- MIC ([2]; 50 min, clinical sample VA_2, 50 minutes incubation, read-out: predicted mode MIC): 1 µg/mL (≈ 2.61 µM)
Compound: C[C@@H](O)[C@H]1C(=O)N2C(C(=O)O)=C(S[C@@H]3CN[C@H](C(=O)N(C)C)C3)[C@H](C)[C@H]12 [Meropenem, meropenem]
- predicted susceptibility category ([2]; clinical sample VA_1, 50 minutes incubation): susceptible
- predicted susceptibility category ([2]; clinical sample VA_1, within 20 minutes of meropenem treatment): resistant
- predicted susceptibility category ([2]; clinical sample VA_2, 50 minutes incubation): susceptible
- predicted susceptibility category ([2]; clinical sample VA_2, within 20 minutes of meropenem treatment): resistant
- MIC of the strain ([3]; K. pneumoniae KP0142): 2 µg/mL
- Meropenem MIC ([3]; KP strain AR Bank# 0010): 1 µg/mL
- Meropenem MIC ([3]; KP strain AR Bank# 0016): < 0.5 µg/mL
- Meropenem Susc. ([3]; KP strain AR Bank# 0016): Susceptible
- Meropenem MIC ([3]; KP strain AR Bank# 0028): < 0.5 µg/mL
- Meropenem MIC ([3]; KP strain AR Bank# 0120): > 8 µg/mL
- Meropenem MIC ([3]; KP strain AR Bank# 0140): 2 µg/mL
- Meropenem MIC ([3]; KP strain AR Bank# 0142): 2 µg/mL
- Meropenem Susc. ([3]; KP strain AR Bank# 0142): Intermediate
- Meropenem MIC ([3]; KP strain AR Bank# 0143): > 8 µg/mL
- Meropenem Susc. ([3]; KP strain AR Bank# 0143): Resistant
- Meropenem MIC ([3]; KP strain AR Bank# 0147): 0.5 µg/mL
- Meropenem MIC ([3]; KP strain AR Bank# 0153): > 8 µg/mL
- Meropenem MIC ([3]; KP strain AR Bank# 0160): > 8 µg/mL
- Meropenem MIC ([3]; KP strain ATCC 700603): ≤ 0.25 µg/mL
- Meropenem MIC ([3]; KP strain ATCC BAA-1705): > 8 µg/mL
- Bulging of the cells (Klebsiella pneumoniae; K. pneumoniae KP0142, 50 μg/ml meropenem versus 0 μg/ml): observed only in the meropenem case; also recorded: only observed in the meropenem case
- cell division (Klebsiella pneumoniae; K. pneumoniae KP0142, 50 μg/ml meropenem, time-lapse imaging): completely inhibited
- bulging or protrusion around the center of the cell (Klebsiella pneumoniae; KP0016 (susceptible)): noticeable ‘bulging’ or protrusion around the center of the cell
- bulging or protrusion around the center of the cell (Klebsiella pneumoniae; KP0142 (intermediate)): noticeable ‘bulging’ or protrusion around the center of the cell
- bulging or protrusion around the center of the cell (Klebsiella pneumoniae; KP0143 (resistant)): not observed
